ChEMBL document CHEMBL3638383, “Pyrimidone derivatives” (2015)
pIC50: −log10 of the molar value.

Target: Glycogen synthase kinase-3 beta splice variant X1 (Bos taurus, UniProt A0A059UE90)
Test: Inhibition Assay: A mixture containing 100 mM MES-sodium hydroxide (pH 6.5), 1 mM magnesium acetate, 0.5 mM EGTA, 5 mM, β-mercaptoethanol, 0.02% Tween 20, 10% glycerol, 12 µg/ml P-GS1, 41.7 µM [γ-^32P] ATP (68 kBq/ml), bovine cerebral TPK1 and a compound shown in Table (a final mixture contained 1.7% DMSO deriving from a solution of a test compound prepared in the presence of 10% DMSO) was used as a reaction system. The phosphorylation was started by adding ATP, and the reaction was conducted at 25° C. for 2 hours, and then stopped by adding 21% perchloric acid on ice cooling. The reaction mixture was centrifuged at 12,000 rpm for 5 minutes and adsorbed on P81 paper (Whatmann), and then the paper was washed four times with 75 mM phosphoric acid, three times with water and once with acetone. The paper was dried, and the residual radioactivity was measured using a liquid scintillation counter.

Row | pIC50 | SMILES
1 | 7.70 | Cn1c(OCC(=O)c2ccccc2)nc(-c2ccncn2)cc1=O
2 | 7.57 | Cn1c(OCC(=O)c2ccc(Br)cc2)nc(-c2ccncc2F)cc1=O
3 | 6.78 | Cn1c(OCC(=O)c2ccc(Br)cc2)nc(-c2ccncc2)cc1=O
4 | 6.97 | Cn1c(OCC(=O)c2ccc(Br)cc2)nc(-c2ccncn2)cc1=O
